Several values for one entry are separate records, joined by “and”; a condition that tells them apart may be missing. Equal entries are not always repeated.
How the values were obtained:
Assay type in all cases: physicochemical
[1] = Solubility of the quinolone, Forms I and III, in ethyl acetate; conditions: 20° C, two values given
Method: Bulk drug samples are prepared by dissolving the material in mobile phase at a final concentration of approximately 0.25 to 0.5 mg/ml. For solubility experiments, 100 mcl aliquots of ethyl acetate solutions are withdrawn and placed directly into HPLC autosampler vials. A gentle stream of nitrogen gas is used to evaporate the solvent in the sample vials. The solids are reconstituted with 0.5 ml of HPLC mobile phase prior to analysis.
Solubilities are measured in ethyl acetate. Five to ten milligrams of bulk drug are placed into an amber autoinjector vial, and 3.0 ml of ethyl acetate are added. The vials are capped and shaken for intervals up to 24 hours at room temperature using a Burrell model BB wrist-action shaker. Aliquots are withdrawn from the supernate after centrifugation. The final sample is taken from a quiescent solution which had not been shaken since the 24 hour timepoint.
The solubilities of Forms I and III were determined in ethyl acetate at room temperature; the solubility data for each form was gathered simultaneously, to assure that each form's solubility was measured under identical conditions. Ethyl acetate was employed as an aprotic solvent yielding fairly low equilibrium solubilities of the quinolone; ethyl acetate has been used to evaluate the difference in free energy of polymorphic forms of an antinociceptive drug, as described by K. Raghavan et al., J. Pharm. Biomed. Anal. Vol.12 (6), pp. 777-785 (1994). Under the assumption that the solubilities in TABLE S are consistent with the dilute solution limit, we can use the following expression to calculate the difference in Gibbs free energy between Form I and Form III: [formula] where "sx " is the solubility of Form x in a sufficiently dilute solution, R is the gas constant, and T is the absolute temperature. Using the data in Table 1, we find that the Gibbs free energy of Form III is lower than that of Form I by 7.7±0.2 kJ/mole.

[2] = Isothermal calorimetry (ITC) of Form I to Form III conversion
Method: Isothermal calorimetry (ITC) experiments are conducted using a model 2277 microcalorimeter made by ThermoMetric (see Suurkuusk, J.:Wadso, I. Chem. Scr. (1982) Vol. 20 pp. 155-163). The Digitam® version 2.1 software from Thermometric is used to display the data and to integrate the total heat obtained from the samples. Heat flow is monitored as a function of time at 60° C. and at 40° C. Both glass and stainless steel ampules are used to hold the solid samples and the reference material (quartz sand). Samples are thermally equilibrated for a period ranging from 15 minutes (glass ampules) to 1 hour (stainless steel ampules) prior to recording thermal data. The weight of the samples ranged from about 75 to 300 mg. Samples in glass ampules are equilibrated via the isopiestic method at 53% or 75% RH in chambers containing saturated solutions of sodium chloride or calcium nitrate tetrahydrate. The ampules are capped immediately after removing the samples. Other samples are equilibrated using "microhygrostats" containing small quantities of saturated salt solutions which are sealed within the ampules. This arrangement provided for nearly constant relative humidity as the crystal conversion proceeded.
We therefore studied the transformation of samples after equilibration at […] and 75% RH. […] HPLC analysis of the reaction product confirmed that the 60° C. ITC profiles contained negligible contributions from chemical decomposition.
A detailed explanation of FIG. 9 follows. […] Trace (a) is recorded from a sample of Form I equilibrated to 75% relative humidity before sealing the sample container and exposing it to the 60° C. conditions in the calorimeter. Trace (b) is recorded for a sample of Form I at 60° C., but a 75% relative humidity "microhygrostat" is placed in the sample container just prior to recording the data. The conversion is delayed from that of trace (a) due to the fact that the water must be transported from the microhygrostat to the Form I crystals during the experiment. Trace (c) is recorded for a sample of Form I at 60° C., but the sample was equilibrated at 53% relative humidity prior to sealing the sample container.
This trace results from placing a 75% relative humidity microhygrostat into the sample container just prior to recording the data. The sample is held at 40° C. in the calorimeter; the heat flow results as the Form I material converts to Form III.

[3] = DSC and thermomicroscopy of solid-state transformations
Method: A Nikon POH-2 polarized light compound microscope with 10× objective is employed to view specimens mounted dry between a glass microscope slide and a no. 11/2 Cover slip. The samples are heated from ambient through 250° C. in a Mettler FP-80 microfurnace controlled by a Mettler FP-8 microprocessor. The heating rates may vary from 5-20° C./minute. The hot-stage experiments may be videotaped (Sony T120-HG and PM VHS tape) with a Hitachi VK-C350 Color Video Camera and a Panasonic AG-6200 Video Cassette Recorder.
Differential scanning calorimetry (DSC) is used to monitor enthalpy changes as a function of temperature during a linear temperature increase. A DuPont 910 DSC interfaced to a TA Instruments TA2100 computer may be used. The scan rate is 5° C./minute, and the instrument is operated with a 50-80 cc/min dry nitrogen purge. Samples are encapsulated in hermetically sealed aluminum sample pans with a pressure rating of about 2 bar. In some experiments, the lids of the pans are perforated to permit the passage of moisture and other volatile components.
Because calorimetric samples are occasionally affected by residual moisture, samples are sometimes studied with different initial water activities. Samples are weighed into tared DSC pans, and the open pans are permitted to equilibrate for several days in chambers of constant relative humidity at 25±1° C. These chambers are prepared from saturated salt solutions at 53% RH and 75% RH. At the end of the equilibration period, the chambers are opened, and the lids are placed over the samples to prevent re-equilibration with the ambient atmosphere. The samples are removed from the chambers, and the pans are quickly crimped closed.
Detailed description of FIG. 8. […] The heating rate is 5° C./minute. (a.) The sample is encapsulated in a standard DSC pan. (b.) The sample is encapsulated in a hermetically sealed DSC pan. The profiles are offset along the ordinate axis for comparison.
Detailed description of FIG. 10. […] The heating rate was 5° C./minute. (a.) The sample was equilibrated at 53% RH and encapsulated in a standard DSC pan. (b.)The sample was equilibrated at 53% RH and encapsulated in a hermetically sealed DSC pan. (c.) The sample was equilibrated at 75% RH and encapsulated in a hermetically sealed DSC pan. The profiles were offset along the ordinate axis for comparison.

## CN[C@@H](C)[C@@H]1CCN(c2c(F)cc3c(=O)c(C(=O)O)cn(C4CC4)c3c2OC)C1 [Form I, [S-(R*,S*)]-1-cyclopropyl-6-fluoro-1,4-dihydro-8-methoxy-7-[3-[1-(methylamino)ethyl]-1-pyrrolidinyl]-4-oxo-3-quinolinecarboxylic acid]
[1]; 1 hour, 60 min
  Solubility, concentration: 2890 µg/mL and 2780 µg/mL
[1]; 2 hours, 120 min
  Solubility, concentration: 2180 µg/mL and 2990 µg/mL
[1]; 4.5 hours, 270 min
  Solubility, concentration: 3010 µg/mL and 3110 µg/mL
[1]; 18 hours, 1080 min
  Solubility, concentration: 3020 µg/mL and 3080 µg/mL
[1]; 24 hours, 1440 min
  Solubility, concentration: 3240 µg/mL and 3320 µg/mL
[1]; 67.5 hours (not shaken after 24 hours), 4050 min
  Solubility, concentration: 3220 µg/mL and 3240 µg/mL
[2]; 40° C, 75% RH microhygrostat
  Conversion exotherm, beginning: about 6 hours
  Conversion exotherm, end: about 50 hours
[2]; 60° C, 51% vs 75% RH
  Rate of conversion Form I to Form III, dependence on humidity: slower at 51% RH than at 75% RH by about two orders of magnitude
[2]; 60° C, after 80 hours, mixture of Forms I and III
  Integrated enthalpy change, low moisture sample: about 10 J/g
[2]; 60° C, equilibrated at 75% RH, by XRD and DSC
  Final state of high moisture sample (in words): converted completely to Form III
[2]; > 7 days at 40° C./50% RH or 5 days at 60° C.
  Conversion of Form I to Form III under dry conditions (in words): did not convert to Form III under dry conditions, even after greater than 7 days at 40° C./50% RH or after 5 days at 60 °C
[2]; before ITC at 40° C
  Initial water content of Form I sample: 0.54%
[2]; equilibrated at 75% RH, 60° C
  Conversion of Form I to Form III (in words): convert completely to Form III in less than one day at 60 °C
[2]; initial water activity at least 53% RH
  Conversion of Form I to Form III (in words): direct conversion of Form I to Form III occurs without the formation of Form II
[2]; microcalorimeter
  Lowest temperature at which conversion of Form I to Form III was observed: 40 °C
[3]; FIG. 8, 5° C./minute
  DSC first merged endotherm/exotherm (melt/recrystallization): 140-150 °C
  DSC second merged endotherm/exotherm (melt/recrystallization): 165-180 °C
[3]; equilibrated at 53% RH, hermetically sealed pan
  DSC melt/recrystallization range, probably direct Form I to Form III: 140-150 °C
[3]; equilibrated at 75% RH, hermetically sealed pan
  DSC exotherm prior to Form III melt: about 130 °C
[3]; slow heating/ thermomicroscopy melt/recrystallization
  Temperature of Form I to Form II transformation: 140-151 °C and 143-151 °C
